Measurements taken from patent US20220281930A1, “COMPOSITIONS AND METHODS FOR THE TREATMENT OF PATHOLOGICAL PAIN AND ITCH” (DUKE UNIVERSITY, priority 2019, published 2022).

Columns and labels:
KCC2 promoter = experiment: KCC2-LUC luciferase primary screen in primary cortical neurons; format: cell-based, mouse; conditions: rank score, 100 nM, 48 h
Procedure: Cytosine arabinoside ([…]) was added to cultures on the second day after seeding [2 d in vitro (DIV)] to inhibit the proliferation of non-neuronal cells. Cell suspension was plated at a density of 1×10^6 cells/ml onto 24-well tissue-culture dishes coated with poly-d-lysine.
LUC activity was then determined for each compound. Culture supernatant was removed and cells were lysed with 150 μl lysis buffer (Targeting Systems CA, USA cat. CLR1). LUC activity was measured with a RedLuciferase Assay kit (Targeting Systems cat. FLAR) according to the manufacturer's instructions. A Veritas microplate luminometer was used to measure luminescence; for each treatment triplicates of 40 μl cell lysates (from each 24-well tissue-culture dish) were used and 25 μl substrate was injected per well. […] Relative Light units (RLU) for each treatment was derived from Light Units (compound treatment)/vehicle treatment (0.5% DMSO).
The primary screen encompassed three levels of LUC measurements. […] Each compound was ranked based on composite scores from primary and secondary screening.

KCC2 mRNA = experiment: Secondary screen: KCC2 RT-qPCR in primary mouse neurons; format: cell-based; conditions: rank score
Procedure: (§1) The primary screen encompassed three levels of LUC measurements. The first level of screening yielded a total of 137 compounds with cut-off RLU>125% LUC activity. These 137 compounds were subject to second round of screening, which was carried out in duplicate independent assays to yield the top 103 compounds sorted for highest RLU. The 103 compounds were then subjected to a third round of screening carried out in duplicate independent assays to yield the top 40 compounds which were again ranked. The best 22 of these 40 compounds (ranked for highest RLU activity) were subjected to secondary screening: Cultured neurons were treated with the 22 compounds; RT-qPCR and Clomeleon imaging methodologies (Yeo et al., 2009, J Neurosci 29:14652-14662) were used to determine effects of compounds on KCC2 mRNA expression and [Cl—]i, respectively. Each compound was ranked based on composite scores from primary and secondary screening.
Total RNA was isolated from cultured cell samples using Directzol RNA miniprep kit (ZymoResearch). The protocol includes DNAse digestion to exclude genomic DNA from preparations. Total RNA (1 μg) was reverse transcribed using oligo primers (dT) and SuperScriptIII first-strand synthesis kit (Invitrogen). Gene expression was assessed by quantitative real-time PCR using 2×SYBR Green Master Mix (Qiagen) and a three-step cycling protocol (anneal at 60° C./elongate at 72° C., denature at 95° C.). Specificity of primers was verified by dissociation/melting curve for the amplicons when using SYBR Green as a detector. All reactions were performed in triplicates. The amount of target messenger RNA (mRNA) in the experimental group relative to that in the control was determined from the resulting fluorescence and threshold values (Ct) using the ΔΔCt method. βIII-tubulin was used as housekeeping gene.
oligodT-initiated reverse transcription of 1 μg total RNA, DNA-se treated, was subjected to RT-qPCR using primers specific for KCC2 for rat and KCC2 for human sequences, normalized for neuronal βIII-tubulin, as previously described (Yeo et al., 2009, J Neurosci 29:14652-14662). For cultured neurons, total RNA was extracted from pelleted cells, and for spinal cord tissue it was extracted from microdissected lumbar spinal cord dorsal horn.
(§2) To identify KCC2 gene expression enhancing compounds, cultured primary cortical neurons were cultured from KCC2-luciferase(LUC)-knockin (KCC2-LUCki) mice (Liedtke et al., 2013, Small 9:1066-1075; Yeo et al., 2013, Proc Natl Acad Sci USA 110:4315-4320) and used LUC metrics as readout for activity of the proximal KCC2 promoter (2.5 kB (Yeo et al., 2009, J Neurosci 29:14652-14662)), which drives LUC in this mouse transgenic line. A Z′ factor of 0.94 was obtained. This strategy will not select for long-range enhancers of KCC2 gene expression that act outside the 2.5 kB core KCC2 promoter. 1057 compounds, contained in two NCI libraries (FIG. 1), related to inhibition of growth of malignantly transformed cells were screened. Iterative screening followed by measurements of KCC2 mRNA (RT-qPCR) and intracellular chloride ([Cl—]i), using clomeleon chloride indicator protein (Kuner and Augustine, 2000, Neuron 27:447-459; Yeo et al., 2009, J Neurosci 29:14652-14662), led to decreasing numbers of confirmed and re-confirmed hits, and 4 “winner” compounds were selected (FIG. 1 and Table 3).

[1] = tested on: intracellular chloride ([Cl—]i); experiment: Secondary screen: Clomeleon chloride imaging in primary mouse neurons; format: cell-based; design: chloride reduction (%): concentration or dose not given beside the values; conditions: for Clomeleon Score (duplicates): rank score; for chloride reduction (%): from the [Cl—]i pair of the same line; for chloride [Cl—]i mM: value after compound, control => treated
Procedure: as §1
(§3) Chloride imaging of primary cultured cortical neurons was conducted as previously described (Kuner and Augustine, 2000, Neuron 27:447-459; Liedtke et al., 2013, Small 9:1066-1075; Yeo et al., 2009, J Neurosci 29:14652-14662). A Clomeleon expression plasmid was transfected into primary cortical neurons by electroporation (Amaxa Nucleofector Device). Transfected neurons were verified by yellow fluorescent protein (YFP) fluorescence, and ratiometric images (excitation at λ=434 nm, dual emission at λ=485 and 535 nm; for resting chloride, six stable frames at […] were captured, which were averaged) were acquired using RATIOTOOL program. Calibration of Clomeleon signals (535 nm/485 nm emission ratio) was performed by using tributyltin-nigericin to establish a standard curve, which was then normalized for measured intraneuronal pH to take into account the pH sensitivity of Clomeleon.
as §2

KCC2 = experiment: Composite score from primary and secondary screening; format: cell-based, mouse; conditions: for Total Score / Aggregate Score: sum of the three scores; for Top two hits / Aggregate Score: Mechanistic Compounds
Procedure: as §1, §2

neuronal [Cl—]i = experiment: Clomeleon chloride imaging in rat primary cortical neurons; format: cell-based; conditions: VU0240551 2.5 μM add-on; both vehicle-treated and KP-treated
Procedure: as §3

nerve injury pain = experiment: Nerve constriction injury (PSNL) pain model, mechanical withdrawal; format: in vivo, mouse; conditions: day 7; 3 h, 4 h, 5 h after i.t injection
Procedure: For pain-related behavior, mechanical allodynia was assessed with von Frey filaments (Ugo Basile, Italy). The mice were placed on a 5×5-mm wire-mesh grid floor in individual compartments to avoid visual stimulation and allowed to adapt for 0.5 h prior to the von Frey test. The von Frey filament was then applied to the middle of the plantar surface of the hind paw with 5 g force. The withdrawal responses following the hind paw stimulation were measured at least three times, and the mechanical allodynia, which was defined as an increase in the number of withdrawal responses to the stimulation, was compared.
Thus, in vivo, KP functions as an analgesic when administered systemically in injury-related pain models.
Next, whether the analgesic effects of KP were mediated centrally at the spinal cord level was assessed.
Mechanical withdrawal was measured thresholds after nerve constriction injury (PSNL) (FIG. 12B and FIG. 12C). […] Thus, δ-cat(S276A) spinal transgenesis via AAV9 is sufficient to evoke analgesia after nerve constriction injury, to lesser degree also with δ-cat(WT). Importantly, δ-cat(S276A) spinal transgenesis was accompanied by increased expression of KCC2 in the SCDH. […] Moreover, our discovery points toward a genetically-encoded approach that can be developed for translation into clinical use as an alternative or complement to KP-related small molecules.

| Structure (SMILES) | Luciferase Score (triplicates) (KCC2 promoter; Natural Compounds) | Luciferase Score (triplicates) (KCC2 promoter; Mechanistic Compounds) | chloride reduction (%) [1] [%] | chloride [Cl—]i mM [1] | further results |
| --- | --- | --- | --- | --- | --- |
| COc1cc([C@@H]2c3cc4c(cc3[C@H](O[C@@H]3O[C@@H]5COC(c6ccccc6)O[C@H]5[C@H](O)[C@H]3O)[C@H]3COC(=O)[C@H]23)OCO4)cc(OC)c1OC (stereo partly drawn) [proresidor] | 9 |  |  |  |  |
| NC(=O)c1cn(C2OC(CO)C(O)C2O)c2ncnc(N)c12 (stereo not drawn) [Sauzivamycin] |  | 6 |  |  |  |
| CC(=O)C1CCCC(=O)C=CC(=O)O1 (stereo not drawn) [NSC180515, 2-Acetyl-2,3,4,5-tetrahydrooxonine-6,9-dione] | 4 |  | 32 | 68 => 22 mM | RT-QPCR Score (triplicates) (KCC2 mRNA; Natural Compounds): 1; Clomeleon Score (duplicates) ([1]; Natural Compounds): 1; Top 2 hits (KCC2; Natural Compounds): winner; Total Score (KCC2; Natural Compounds): 6 |
| CC1(C)CCC[C@]2(C)C3=C(CC[C@@H]12)C(=O)OC3 [confertifoline] | 1 |  | 56 | 75 => 42 mM | RT-QPCR Score (triplicates) (KCC2 mRNA; Natural Compounds): 5; Clomeleon Score (duplicates) ([1]; Natural Compounds): 5; Total Score (KCC2; Natural Compounds): 11 |
| C[C@@]12C(=O)OC(=O)[C@]1(C)[C@H]1CC[C@@H]2O1 [cantharidine] | 6 |  | 48.5 | 68 => 33 mM | RT-QPCR Score (triplicates) (KCC2 mRNA; Natural Compounds): 6; Clomeleon Score (duplicates) ([1]; Natural Compounds): 3; Total Score (KCC2; Natural Compounds): 15 |
| Cc1ccc(NC(=O)c2cccc([N+](=O)[O-])c2O)c(C)c1 [NSC79456, n-(2,4-Dimethylphenyl)-2-hydroxy-3-nitrobenzamide] |  | 1 | 32.4 | 74 => 24 mM | RT-QPCR Score (triplicates) (KCC2 mRNA; Mechanistic Compounds): 3; Clomeleon Score (duplicates) ([1]; Mechanistic Compounds): 1; Top two hits (KCC2): winner; Aggregate Score (KCC2): 5 |
| CC(=O)Nc1ccc(-c2nc3ccccc3s2)cc1 [NSC33006, N-[4-(1,3-benzothiazol-2-yl)phenyl]acetamide] |  | 2 | 37.8 | 74 => 28 mM | RT-QPCR Score (triplicates) (KCC2 mRNA; Mechanistic Compounds): 1; Clomeleon Score (duplicates) ([1]; Mechanistic Compounds): 2; Top two hits (KCC2): winner; Aggregate Score (KCC2): 5 |
| CC(=O)/C(=C\c1cccc([N+](=O)[O-])c1)C(=O)Nc1ccccc1C [(2E)-N-(2-methylphenyl)-2-[(3-nitrophenyl)methylidene]-3-oxobutanamide] |  | 5 |  |  |  |
| CC(O)CCC(=O)c1ccoc1 (stereo not drawn) [4-Ipomeanol] |  | 3 | 43.2 | 74 => 32 mM | RT-QPCR Score (triplicates) (KCC2 mRNA; Mechanistic Compounds): 2; Clomeleon Score (duplicates) ([1]; Mechanistic Compounds): 3; Aggregate Score (KCC2): 8 |
| CC1(C)C(O)OC(O)C1(C)C (stereo not drawn) [3,3,4,4-tetramethyloxolane-2,5-diol, 3,3,4,4-tetramethyl-oxolane-2,5-diol] |  | 6 |  |  |  |
| COc1ccc(C(=O)O[C@H]2CC[C@@]3(C)[C@@H]4CC[C@H]5[C@]6(O)C[C@H](O)[C@@]7(O)[C@@H](CN8C[C@@H](C)CC[C@H]8[C@@]7(C)O)[C@]6(O)C[C@@]53O[C@]24O)cc1OC [veratridine] | 7 |  |  |  |  |
| COc1cc2c3c(c4ccc(OC)c(OC)c4c2cc1OC)CN1CCC[C@H]1C3 [tylocrebrine] | 5 |  | 52 | 75 => 39 mM | RT-QPCR Score (triplicates) (KCC2 mRNA; Natural Compounds): 3; Clomeleon Score (duplicates) ([1]; Natural Compounds): 4; Total Score (KCC2; Natural Compounds): 12 |
| Cc1csc(NC(=O)CSc2ccc(-c3ccccc3)nn2)n1 [VU0240551] |  |  |  |  | [Cl—]i with add-on KCC2-transport blocker (neuronal [Cl—]i): ≥ 120 mM; effect of i.t co-application with KP on KP analgesia (nerve injury pain): eliminates the central analgesic effects of KP |
| N=C1N=CN=C2C([C@@H]3O[C@H](CO)[C@@H](O)[C@H]3O)=CN=C12 [9-Deazaadenosine] |  | 2 | 48.8 | 82 => 40 mM | RT-QPCR Score (triplicates) (KCC2 mRNA; Mechanistic Compounds): 4; Clomeleon Score (duplicates) ([1]; Mechanistic Compounds): 5; Aggregate Score (KCC2): 11 |
| COc1cc2c(c(OC)c1OC)-c1ccc(OC)c(=O)cc1[C@@H](NC(C)=O)CC2 [colchicine] | 10 |  |  |  |  |
| Cc1cc(-c2nc3ccccc3s2)ccc1N [4-(1,3-Benzothiazol-2-yl)-2-methylaniline] |  | 4 | 46.3 | 82 => 38 mM | RT-QPCR Score (triplicates) (KCC2 mRNA; Mechanistic Compounds): 5; Clomeleon Score (duplicates) ([1]; Mechanistic Compounds): 4; Aggregate Score (KCC2): 13 |
| COc1ccc(C[C@H]2NC[C@H](O)[C@H]2OC(C)=O)cc1 [anisomycine] | 3 |  | 57.3 | 75 => 43 mM | RT-QPCR Score (triplicates) (KCC2 mRNA; Natural Compounds): 4; Clomeleon Score (duplicates) ([1]; Natural Compounds): 6; Total Score (KCC2; Natural Compounds): 13 |
| CC(=O)N1CCN(c2ccc(OCC3COC(Cn4ccnc4)(c4ccc(Cl)cc4Cl)O3)cc2)CC1 (stereo not drawn) [ketoconazole] | 9 |  |  |  |  |
